From patent US9112158B1, “Asymmetric styrene derivatives having carbazole and aniline and organic light emitting diode using the same” (National Tsing Hua University, priority 2014, dated 2015) come the findings set out here.

This series is described as follows: solubility of the compound in toluene. It counts as physicochemical.

As to `C(=C\c1ccc(N(c2ccccc2)c2cccc3ccccc23)cc1)/c1ccc(-c2ccc(/C=C/c3ccc4c(c3)c3ccccc3n4-c3ccccc3)cc2)cc1` [PCzNA, N-phenyl-N-{4-[(E)-2-(4-{4-[(E)-2-(9-phenyl-9H-carbazol-3-yl)ethenyl]phenyl}phenyl)ethenyl]phenyl}naphthalen-1-amine], the Solubility is listed as over 1 wt %. For `C(=C\c1ccc(N(c2ccccc2)c2ccccc2)cc1)/c1ccc(-c2ccc(/C=C/c3ccc4c(c3)c3ccccc3n4-c3ccccc3)cc2)cc1` [PCzDPA, N,N-diphenyl-4-[(E)-2-(4-{4-[(E)-2-(9-phenyl-9H-carbazol-3-yl)ethenyl]phenyl}phenyl)ethenyl]aniline] the value was over 1 wt %.
